Like-named read-outs stand apart in the source and are kept apart here.

For one experiment, the target named is Pim-2 (Homo sapiens (Human), UniProt Q9P1W9). The experiment can be described thus: Pim-Mn enzyme assay (HTRF, 384-well), Pim-2. To be noted: read-out: Pim-2-Mn IC50 IP. The class given is biochemical.
A further experiment concerns KMS-12-BM cell lines. The experiment can be described thus: KMS12 #2 flow cytometry assay (phospho-BAD Ser112). The class given is cell-based. As to conditions: Homo sapiens, 110 min; KMS-12-BM cells, pBAD Ser112 by flow cytometry, 110 min with compound; read-out: KMS-12-Flow IC50 IP. For orientation: In flow cytometry, cells or beads pass a laser one at a time.
The next experiment has as its target Pim-1 (Homo sapiens (Human), UniProt P11309). The experiment can be described thus: Pim-Mn enzyme assay (HTRF, 384-well), Pim-1. Type of experiment: biochemical. As to conditions: read-out: Pim-1-Mn IC50 IP.
Setting [1] is: Pim-2 enzyme 0.5 pM, ATP 1.5 μM, BAD (S112) 0.5 μM, HTRF, 22-point curve.
Setting [2] is: Pim-1 enzyme 5 pM, ATP 1.5 μM, BAD (S112) 0.5 μM, HTRF, 22-point curve.

Chain of Pim-1 (P11309 whole entry): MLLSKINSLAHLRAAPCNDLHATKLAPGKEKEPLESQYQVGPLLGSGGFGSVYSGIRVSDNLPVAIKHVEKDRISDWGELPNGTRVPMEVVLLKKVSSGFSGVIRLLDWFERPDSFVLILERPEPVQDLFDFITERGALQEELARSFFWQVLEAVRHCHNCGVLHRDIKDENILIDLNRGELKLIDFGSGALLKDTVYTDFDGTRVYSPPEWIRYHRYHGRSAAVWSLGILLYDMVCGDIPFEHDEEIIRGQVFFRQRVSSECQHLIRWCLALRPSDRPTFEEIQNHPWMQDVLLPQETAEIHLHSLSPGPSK
Chain of Pim-2 (Q9P1W9 whole entry): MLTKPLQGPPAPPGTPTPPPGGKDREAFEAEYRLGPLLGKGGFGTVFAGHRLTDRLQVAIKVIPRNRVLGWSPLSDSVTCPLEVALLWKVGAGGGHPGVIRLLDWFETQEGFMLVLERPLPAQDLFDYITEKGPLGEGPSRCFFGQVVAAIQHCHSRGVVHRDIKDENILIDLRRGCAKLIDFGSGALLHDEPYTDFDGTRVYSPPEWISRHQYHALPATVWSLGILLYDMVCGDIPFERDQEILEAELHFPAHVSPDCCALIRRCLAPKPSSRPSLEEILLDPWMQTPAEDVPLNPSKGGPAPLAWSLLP

For the compound `Cc1nc2cccc(-c3cc4c([nH]3)CNC4=O)c2nc1NC(C)(C)C` [Example 334, 2-(3-(tert-Butylamino)-2-methyl-5-quinoxalinyl)-5,6-dihydropyrrolo[3,4-b]pyrrol-4(1H)-one], the IC50 (commonly the midpoint of a concentration-inhibition curve) is 0.882 nM on Pim-2 (setting [1]), 43.8 nM in the experiment on KMS-12-BM cell lines and 1.18 nM on Pim-1 (setting [2]).

As to `Cc1nc2cccc(-c3cc4c([nH]3)CCNC4=O)c2nc1NCC1(C)CC1` [Example 335, 2-(2-Methyl-3-(((1-methylcyclopropyl)methyl)amino)-5-quinoxalinyl)-1,5,6,7-tetrahydro-4H-pyrrolo[3,2-c]pyridin-4-one], the concentration for half-maximal inhibition (IC50) on Pim-2 (setting [1]) turned out to be 0.996 nM; in the experiment with KMS-12-BM cell lines, 99.3 nM; on Pim-1 (setting [2]), 1.22 nM.

As for `Cc1nc2cccc(-c3cc4c([nH]3)CCNC4=O)c2nc1NCC(F)(F)F` [Example 336, 2-(2-methyl-3-((2,2,2-trifluoroethyl)amino)-5-quinoxalinyl)-1,5,6,7-tetrahydro-4H-pyrrolo[3,2-c]pyridin-4-one], the figures for the IC50 on Pim-2 (setting [1]), with KMS-12-BM cell lines and on Pim-1 (setting [2]) were 1.32 nM, 145 nM and 2.82 nM, respectively.

As for `CCOc1cnc2cccc(-c3cc4c([nH]3)CCNC4=O)c2n1` [Example 337, 2-(3-ethoxy-5-quinoxalinyl)-1,5,6,7-tetrahydro-4H-pyrrolo[3,2-c]pyridin-4-one], the half-inhibitory concentration (IC50) at Pim-2 (setting [1]) amounted to 54.6 nM; in the experiment on KMS-12-BM cell lines, 6920 nM; on Pim-1 (setting [2]) it was 71.9 nM.

As to `Cc1nc2cccc(-c3cc4c([nH]3)CCNC4=O)c2nc1NC(C)(C)CN` [Example 341, 2-(3-((2-amino-1,1-dimethylethyl)amino)-2-methyl-5-quinoxalinyl)-1,5,6,7-tetrahydro-4H-pyrrolo[3,2-c]pyridin-4-one], the concentration for half-maximal inhibition (IC50) was 10.7 nM on Pim-2, 7830 nM in the experiment with KMS-12-BM cell lines and 6.85 nM on Pim-1 (setting [2]).

In the case of `Cc1nc2cccc(-c3cc4c([nH]3)CCNC4=O)c2nc1NC(C)(C)CNCCS(C)(=O)=O` [Example 342, 2-(3-((1,1-dimethyl-2-((2-(methylsulfonyl)ethyl)amino)ethyl)amino)-2-methyl-5-quinoxalinyl)-1,5,6,7-tetrahydro-4H-pyrrolo[3,2-c]pyridin-4-one], the IC50 turned out to be 20.4 nM at Pim-2 (setting [1]), 11500 nM in the experiment with KMS-12-BM cell lines and 28.1 nM on Pim-1 (setting [2]).

For the compound `CC(C)(C)Nc1nc2c(-c3cc4c([nH]3)CCNC4=O)cccc2nc1F` [Example 343, 2-(3-(tert-butylamino)-2-fluoro-5-quinoxalinyl)-1,5,6,7-tetrahydro-4H-pyrrolo[3,2-c]pyridin-4-one], the IC50 on Pim-2 (setting [1]) was 2.78 nM; in the experiment on KMS-12-BM cell lines, 1770 nM; on Pim-1 (setting [2]) it was 2.33 nM.

`CNc1nc2cccc(-c3cc4c([nH]3)CCNC4=O)c2nc1NC(C)(C)C` [Example 344, 2-(3-(tert-butylamino)-2-(methylamino)-5-quinoxalinyl)-1,5,6,7-tetrahydro-4H-pyrrolo[3,2-c]pyridin-4-one]: the IC50 was 5.61 nM at Pim-2 (setting [1]), 202 nM with KMS-12-BM cell lines and 1.19 nM on Pim-1 (setting [2]).

For the compound `CC(C)(C)Nc1nc2c(-c3cc4c([nH]3)CCNC4=O)cccc2nc1Cl` [Example 345, 2-(3-(tert-butylamino)-2-chloro-5-quinoxalinyl)-1,5,6,7-tetrahydro-4H-pyrrolo[3,2-c]pyridin-4-one], the IC50 at Pim-2 (setting [1]) was determined as 2.25 nM; in the experiment with KMS-12-BM cell lines it was 2730 nM; at Pim-1 (setting [2]), 1 nM.

Take `CC(C)(C)Nc1nc2c(-c3cc4c([nH]3)CCNC4=O)cccc2nc1N1CC(O)C1` [Example 346, 2-(3-(tert-butylamino)-2-(3-hydroxy-1-azetidinyl)-5-quinoxalinyl)-1,5,6,7-tetrahydro-4H-pyrrolo[3,2-c]pyridin-4-one]: the concentration for half-maximal inhibition (IC50) on Pim-2 (setting [1]) turned out to be 10.8 nM; in the experiment with KMS-12-BM cell lines, 1120 nM; on Pim-1 (setting [2]) it was 4.07 nM.

`CC(C)(C)Nc1nc2c(-c3cc4c([nH]3)CCNC4=O)cccc2nc1N1CCC1` [Example 347, 2-(2-(1-azetidinyl)-3-(tert-butylamino)-5-quinoxalinyl)-1,5,6,7-tetrahydro-4H-pyrrolo[3,2-c]pyridin-4-one]: the concentration for half-maximal inhibition (IC50) on Pim-2 worked out at 10.5 nM; in the experiment on KMS-12-BM cell lines, 3660 nM; on Pim-1 it was 4.55 nM.

Regarding `Cc1nc2cccc(-c3[nH]c4c(c3Br)C(=O)NCC4)c2nc1NC(C)(C)C` [Example 349, 3-bromo-2-(3-(tert-butylamino)-2-methyl-5-quinoxalinyl)-1,5,6,7-tetrahydro-4H-pyrrolo[3,2-c]pyridin-4-one], the results for the 50% inhibitory concentration (IC50) at Pim-2 (setting [1]), in the experiment with KMS-12-BM cell lines and on Pim-1 (setting [2]) were 0.874 nM, 1000 nM and 0.625 nM, respectively.

With `Cc1nc2cccc(-c3[nH]c4c(c3C)C(=O)NCC4)c2nc1NC(C)(C)C` [Example 350, 2-(3-(tert-butylamino)-2-methyl-5-quinoxalinyl)-3-methyl-1,5,6,7-tetrahydro-4H-pyrrolo[3,2-c]pyridin-4-one], the figures for the IC50 on Pim-2 (setting [1]), in the experiment on KMS-12-BM cell lines and at Pim-1 (setting [2]) were 3.38 nM, 1510 nM and 2.31 nM, respectively.

As for `COC1=NCCc2[nH]c(-c3cccc4nc(C)c(NC(C)(C)C)nc34)cc21` [Example 351, N-tert-butyl-8-(4-methoxy-6,7-dihydro-1H-pyrrolo[3,2-c]pyridin-2-yl)-3-methyl-2-quinoxalinamine], the IC50 amounted to 8.9 nM at Pim-2 (setting [1]), 2350 nM in the experiment with KMS-12-BM cell lines and 9.23 nM at Pim-1 (setting [2]).

Consider `Cc1nc2ccc(F)c(-c3cc4c([nH]3)[C@H]([C@@H](C)O)NC4=O)c2nc1NC1CC1` [Example 352, (6R)-2-(3-(cyclopropylamino)-6-fluoro-2-methyl-5-quinoxalinyl)-6-((1R)-1-hydroxyethyl)-5,6-dihydropyrrolo[3,4-b]pyrrol-4(1H)-one], for which the IC50 came out at 2.45 nM at Pim-2 (setting [1]), 188 nM in the experiment on KMS-12-BM cell lines and 1.59 nM on Pim-1 (setting [2]).

On to `Cc1nc2ccc(F)c(-c3cc4c([nH]3)[C@@H]([C@H](C)O)NC4=O)c2nc1NC1CC1` [Example 353, (6S)-2-(3-(cyclopropylamino)-6-fluoro-2-methyl-5-quinoxalinyl)-6-((1S)-1-hydroxyethyl)-5,6-dihydropyrrolo[3,4-b]pyrrol-4(1H)-one], for which the IC50 on Pim-2 (setting [1]) is 2.3 nM; in the experiment on KMS-12-BM cell lines, 109 nM; at Pim-1 (setting [2]), 2.26 nM.

For the compound `Cc1nc2ccc(F)c(-c3cc4c([nH]3)[C@H]([C@H](C)O)NC4=O)c2nc1NC1CC1` [Example 354, (R)-2-(3-(cyclopropylamino)-6-fluoro-2-methylquinoxalin-5-yl)-6-((S)-1-hydroxyethyl)-5,6-dihydropyrrolo[3,4-b]pyrrol-4(1H)-one], the half-inhibitory concentration (IC50) was determined as 16.4 nM at Pim-2 (setting [1]), 2310 nM in the experiment on KMS-12-BM cell lines and 7.08 nM at Pim-1 (setting [2]).

Take `Cc1nc2cccc(-c3cc4c([nH]3)C(COCc3ccccc3)NC4=O)c2nc1NC1(C)CC1` (stereo not drawn) [Example 355, 6-((benzyloxy)methyl)-2-(2-methyl-3-((1-methylcyclopropyl)amino)quinoxalin-5-yl)-5,6-dihydropyrrolo[3,4-b]pyrrol-4 (1H)-one]: the figures for the half-inhibitory concentration (IC50) on Pim-2 (setting [1]), with KMS-12-BM cell lines and at Pim-1 were 1.86 nM, 2430 nM and 1.79 nM, respectively.

In the case of `Cc1nc2cccc(-c3cc4c([nH]3)CNC4=O)c2nc1NC1(C)CC1` [Example 357, 2-(2-Methyl-3-((1-methylcyclopropyl)amino)quinoxalin-5-yl)-5,6-dihydropyrrolo[3,4-b]pyrrol-4(1H)-one], the figures for the 50% inhibitory concentration (IC50) at Pim-2 (setting [1]), in the experiment on KMS-12-BM cell lines and at Pim-1 were 0.57 nM, 15 nM and 0.463 nM, respectively.

As to `Cc1nc2cccc(-c3[nH]c4c(c3Cl)C(=O)NC4)c2nc1NC1(C)CC1` [Example 358, 3-Chloro-2-(2-methyl-3-((1-methylcyclopropyl)amino)quinoxalin-5-yl)-5,6-dihydropyrrolo[3,4-b]pyrrol-4(1H)-one], the 50% inhibitory concentration (IC50) on Pim-2 (setting [1]) amounted to 0.0783 nM; in the experiment on KMS-12-BM cell lines it was 49.6 nM; at Pim-1 (setting [2]), 0.0339 nM.

As to `Cc1nc2cccc(-c3cc4c([nH]3)C(CO)NC4=O)c2nc1NC1(C)CC1` (stereo not drawn) [Example 360, 6-(hydroxymethyl)-2-(2-methyl-3-((1-methylcyclopropyl)amino)quinoxalin-5-yl)-5,6-dihydropyrrolo[3,4-b]pyrrol-4 (1H)-one], the IC50 at Pim-2 (setting [1]) is 1.37 nM; in the experiment with KMS-12-BM cell lines, 88.4 nM; at Pim-1 (setting [2]), 1.42 nM.

In the case of `Cc1nc2cccc(-c3cc4c([nH]3)[C@@H](CO)NC4=O)c2nc1NC1(C)CC1` [Example 361, (S)-6-(hydroxymethyl)-2-(2-methyl-3-((1-methylcyclopropyl)amino)quinoxalin-5-yl)-5,6-dihydropyrrolo[3,4-b]pyrrol-4 (1H)-one], the 50% inhibitory concentration (IC50) was determined as 0.53 nM on Pim-2 (setting [1]), 67.1 nM in the experiment with KMS-12-BM cell lines and 0.414 nM on Pim-1 (setting [2]).

Consider `Cc1nc2cccc(-c3cc4c([nH]3)[C@H](CO)NC4=O)c2nc1NC1(C)CC1` [Example 362, (R)-6-(hydroxymethyl)-2-(2-methyl-3-((1-methylcyclopropyl)amino)quinoxalin-5-yl)-5,6-dihydropyrrolo[3,4-b]pyrrol-4 (1H)-one], for which the results for the concentration for half-maximal inhibition (IC50) at Pim-2 (setting [1]), in the experiment with KMS-12-BM cell lines and at Pim-1 (setting [2]) were 1.82 nM, 251 nM and 1.73 nM, respectively.

For the compound `Cc1nc2cccc(-c3cc4c([nH]3)CNC4=O)c2nc1NC1CC1` [Example 363, 2-(3-(cyclopropylamino)-2-methylquinoxalin-5-yl)-5,6-dihydropyrrolo[3,4-b]pyrrol-4(1H)-one], the IC50 at Pim-2 (setting [1]) stood at 0.297 nM; in the experiment on KMS-12-BM cell lines, 142 nM; at Pim-1 (setting [2]), 0.345 nM.

Consider `Cc1nc2cccc(-c3cc4c([nH]3)[C@@H](CO)NC4=O)c2nc1NC1CC1` [Example 366, (S)-2-(3-(cyclopropylamino)-2-methylquinoxalin-5-yl)-6-(hydroxymethyl)-5,6-dihydropyrrolo[3,4-b]pyrrol-4(1H)-one], for which the IC50 at Pim-2 (setting [1]) came to 0.177 nM; in the experiment on KMS-12-BM cell lines it was 79.4 nM; at Pim-1 (setting [2]), 0.192 nM.

The values above are taken from patent US9394297B2, “Amides as pim inhibitors” (AMGEN INC., priority 2012, dated 2016).
